The values that follow come from patent EP4603105A1, “PHARMACEUTICAL COMPOSITION CONTAINING CYCLIC COMPOUND HAVING SELECTIVE KRAS INHIBITORY EFFECT AGAINST HRAS AND NRAS” (CHUGAI SEIYAKU KABUSHIKI KAISHA, priority 2022, dated 2024).

pIC50, pKd: −log10 of the molar value. Where two headings read alike, the source gives them in different places.

The target of test [1] is HRAS wild-type protein (Homo sapiens, UniProt P01112). As to the kind of experiment: Binding to HRAS by surface plasmon resonance (SPR), KD and KD ratio to KRAS. A digest of the protocol: (§1)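 Running buffer contained 10 µM GDP and 10 mM MgCl2 to keep RAS in the GDP state, with 4% DMSO at pH 7.4. Compounds were flowed at 100 µL/min in 75 s steps of rising concentration over captured biotin-Avi RAS at 30°C. Sensorgrams were fitted 1:1 for KD.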
A general note: In SPR one partner is held on a chip, and binding of the other changes the refractive index at the surface.

Test [2] relates to human lung cancer strain NCI-H441. As to the kind of experiment: NCI-H441 cell proliferation inhibitory activity (CellTiter-Glo, 4 days). Type of test: cell-based. As to conditions: read-out: NCl-H441 IC50. The essentials:
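Step one: dispense the test compound in serial DMSO dilutions. Step three: add the reagent and measure […].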
A general note: ATP-based viability assays read luminescence as a measure of living cells.

Test [3] concerns the target GDP-bound NRAS wild-type protein (Homo sapiens, UniProt P01111). Description: Binding to NRAS by surface plasmon resonance (SPR), KD and KD ratio to KRAS. The essentials:
as §1

In test [4] the target is GDP-bound KRAS wild-type protein (Homo sapiens, UniProt P01116). As to the kind of experiment: Binding to KRAS by surface plasmon resonance (SPR), dissociation constant KD. A digest of the protocol: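 GDP-bound biotin-Avi RAS captured at ~100–300 RU, 30°C, pH 7.4 HBS containing 10 µM GDP, 10 mM MgCl2, 1 mM DTT, 0.01% Tween 20 and 4% DMSO. KD by 1:1 fitting.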
Setting [5] is: ratio of KD for HRAS wild-type protein to KD for KRAS.
The mark [6] stands for this setting: ratio of KD for GDP-bound NRAS wild-type protein to KD for KRAS.

Sequence of GDP-bound NRAS wild-type protein (P01111 whole entry): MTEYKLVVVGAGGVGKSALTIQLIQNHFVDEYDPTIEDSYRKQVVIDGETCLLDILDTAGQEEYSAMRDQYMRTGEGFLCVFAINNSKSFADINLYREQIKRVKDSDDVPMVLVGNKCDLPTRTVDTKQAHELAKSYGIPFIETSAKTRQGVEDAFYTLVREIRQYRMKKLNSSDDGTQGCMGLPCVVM
Sequence of GDP-bound KRAS wild-type protein (P01116 1-188 isoform P01116-2): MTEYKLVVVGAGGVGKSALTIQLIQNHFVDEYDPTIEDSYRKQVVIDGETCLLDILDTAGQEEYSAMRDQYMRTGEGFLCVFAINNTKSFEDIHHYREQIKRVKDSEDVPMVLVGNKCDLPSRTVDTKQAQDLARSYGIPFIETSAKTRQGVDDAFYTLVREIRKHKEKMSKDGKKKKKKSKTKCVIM
Sequence of HRAS wild-type protein (P01112 whole entry): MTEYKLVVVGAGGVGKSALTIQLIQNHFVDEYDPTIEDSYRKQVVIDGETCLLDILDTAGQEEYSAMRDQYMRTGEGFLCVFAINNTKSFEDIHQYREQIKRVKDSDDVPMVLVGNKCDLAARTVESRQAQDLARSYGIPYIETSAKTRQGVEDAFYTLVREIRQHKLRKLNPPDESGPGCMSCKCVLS

Usually pIC50 stands for the negative decadic logarithm of the IC50, by convention in mol/L. In general, pKd refers to the Kd on a negative log10 scale, so that one unit is a factor of ten. As for `CCC[C@H]1C(=O)N[C@@H]([C@@H](C)CC)C(=O)N2CCC[C@H]2C(=O)N(C)[C@H]2C/C=C\CCN(C2=O)[C@@H](Cc2ccc(C(F)(F)F)cc2)C(=O)N(C)CC(=O)N[C@@H](CCc2ccc(C(F)(F)F)c(OC)c2)C(=O)N2C[C@@H](C)C[C@H]2C(=O)N(C)C2(CCC2)C(=O)N(C)[C@@H](C2CCCC2)C(=O)N(C)[C@H](C(=O)N(C)C)CC(=O)N1C` [PP2362], in test [1] (setting [5]), the “HRAS /KRAS” value is “A (a compound having 10 or more and less than 20 is denoted as A)”. In test [2] (NCI-H441 cells, 4 days), the pIC50 was 8.32. For the same compound, the “NRAS /KRAS” value in test [3] (setting [6]) is “A (a compound having 10 or more and less than 20 is denoted as A)”. Also, in test [4] (1:1 binding model), the pKd was 10.12.

On to `CCC[C@H]1C(=O)N[C@@H](CC(C)C)C(=O)N2C[C@@H](OC)C[C@H]2C(=O)N(C)[C@H]2C/C=C\CCN(C2=O)[C@@H](Cc2ccc(C)cc2)C(=O)N(C)CC(=O)N[C@@H](CCc2ccc(C(F)(F)F)c(Cl)c2)C(=O)N2C[C@H](OCC)C[C@H]2C(=O)NC2(CC(C)(C)C2)C(=O)N(C)[C@@H](C2CCCC2)C(=O)N(C)[C@H](C(=O)N(C)C)CC(=O)N1C` [PP2555], for which the “HRAS /KRAS” value in test [1] (setting [5]) was “B (a compound having 3 or more and less than 10 is denoted as B)”. The pIC50 in test [2] (NCI-H441 cells, 4 days) was 6.67. The “NRAS /KRAS” value in test [3] (setting [6]) is “A (a compound having 10 or more and less than 20 is denoted as A)”. For the same compound, the pKd in test [4] (1:1 binding model) is 8.39.

Regarding `CCCO[C@@H]1C[C@H]2C(=O)NC3(CC(C)(C)C3)C(=O)N(C)[C@@H](C3CCCC3)C(=O)N(C)[C@H](C(=O)N(C)CC)CC(=O)N[C@@H](COCC)C(=O)N[C@@H]([C@@H](C)CC)C(=O)N3CCC[C@H]3C(=O)N(C)[C@H]3C/C=C\CCN(C3=O)[C@@H](Cc3ccc(C)cc3)C(=O)N(C)CC(=O)N[C@@H](CCc3ccc(C(F)(F)F)c(OC)c3)C(=O)N2C1` [PP3439], the “HRAS /KRAS” value in test [1] (setting [5]) is “A (a compound having 10 or more and less than 20 is denoted as A)”. For the same compound, the pIC50 in test [2] (NCI-H441 cells, 4 days) was 6.83. Besides, the “NRAS /KRAS” value in test [3] (setting [6]) is “A (a compound having 10 or more and less than 20 is denoted as A)”. In addition, in test [4] (Single Cycle Kinetics), the pKd is 8.77.

Turning to `CCCOC[C@H]1C(=O)N[C@@H]([C@@H](C)CC)C(=O)N(C)CC(=O)N(C)[C@H]2C/C=C\CCN(C2=O)[C@@H](Cc2ccc(C)cc2)C(=O)N(C)CC(=O)N[C@@H](CCc2cc(F)c(C(F)(F)F)c(F)c2)C(=O)N2C[C@H](OCC)C[C@H]2C(=O)NC2(CCCC2)C(=O)N(C)[C@@H](C2CCCC2)C(=O)N(C)[C@H](C(=O)N2CCCC2)CC(=O)N1C` [PP1401], the “HRAS /KRAS” value in test [1] (ratio of KD with respect to HRAS wild-type protein to KD with respect to KRAS) was “A (a compound having 10 or more and less than 20 is denoted as A)”. Besides, in test [2] (50% proliferation inhibitory concentration, four days), the pIC50 is 7.46. Further, the “NRAS /KRAS” value in test [3] (ratio of KD with respect to GDP-bound NRAS wild-type protein to KD with respect to KRAS) is “A (a compound having 10 or more and less than 20 is denoted as A)”. The compound also showed a pKd in test [4] (Single Cycle Kinetics, 1:1 binding model) of 9.59.

Turning to `CCOC[C@H]1C(=O)N[C@@H]([C@@H](C)CC)C(=O)N(C)CC(=O)N(C)[C@H]2C/C=C\CCN(C2=O)[C@@H](Cc2ccc(C)cc2)C(=O)N(C)CC(=O)N[C@@H](CCc2ccc(C(F)(F)F)c(Cl)c2)C(=O)N2C[C@@H](C)C[C@H]2C(=O)NC2(CC(C)(C)C2)C(=O)N(C)[C@@H](C2CCCC2)C(=O)N(C)[C@H](C(=O)N(C)C)CC(=O)N1C` [PP2394], the “HRAS /KRAS” value in test [1] (setting [5]) was “B (a compound having 3 or more and less than 10 is denoted as B)”. Also, the negative logarithm of the IC50 (pIC50) in test [2] (NCI-H441 cells, 4 days) was 8.08. Further, the “NRAS /KRAS” value in test [3] (setting [6]) is “A (a compound having 10 or more and less than 20 is denoted as A)”. In test [4] (1:1 binding model), this compound showed a pKd of 9.92.

For the compound `CCOC[C@H]1C(=O)N[C@@H]([C@@H](C)CC)C(=O)N(C)CC(=O)N(C)[C@H]2C/C=C\CCN(C2=O)[C@@H](Cc2ccc(C)cc2)C(=O)N(C)CC(=O)N[C@@H](CCc2cc(F)c(C(F)(F)F)c(F)c2)C(=O)N2C[C@H](OCC)C[C@H]2C(=O)NC2(CC(C)(C)C2)C(=O)N(C)[C@@H](C2CCCC2)C(=O)N(C)[C@H](C(=O)N(CC)CC)CC(=O)N1C` [PP2408], the “HRAS /KRAS” value in test [1] (setting [5]) is “A (a compound having 10 or more and less than 20 is denoted as A)”. The pIC50 in test [2] (NCI-H441 cells, 4 days) was 7.67. Further, the “NRAS /KRAS” value in test [3] (setting [6]) was “A (a compound having 10 or more and less than 20 is denoted as A)”. Also, the pKd in test [4] (1:1 binding model) is 9.64.

Consider `C=C(C)C[C@H]1C(=O)N(C)[C@H](C(=O)N(C)C)CC(=O)N(C)[C@@H](CCC)C(=O)N[C@@H]([C@@H](C)CC)C(=O)N(C)CC(=O)N(C)[C@H]2C/C=C\CCN(C2=O)[C@@H](Cc2ccc(C(F)(F)F)cc2)C(=O)N(C)CC(=O)N[C@@H](CCc2cc(F)c(C(F)(F)F)c(F)c2)C(=O)N2C[C@H](OCC)C[C@H]2C(=O)N(C)C2(CCC2)C(=O)N1C` [PP3337], for which the “HRAS /KRAS” value in test [1] (setting [5]) is “A (a compound having 10 or more and less than 20 is denoted as A)”. The pIC50 in test [2] (NCI-H441 cells, 4 days) was 7.18. Further, the “NRAS /KRAS” value in test [3] (setting [6]) is “A (a compound having 10 or more and less than 20 is denoted as A)”. Besides, in test [4] (Single Cycle Kinetics), the pKd was 8.89.
